Experiment: xn = mol fraction of the nth substance listed
Details: for viscosity: 101 kPa; for electrical conductivity: 100 kPa

CCCCCCCCCCCCCCCC[N+](C)(C)C.[Br-] + NCC(=O)O + O
viscosity [mPa·s]
Details	298.15 K	303.15 K	308.15 K	313.15 K
x2 = 0.003591, x1 = 3.46e-06	0.906	0.819	0.74	0.67
x2 = 0.003591, x1 = 8.2e-06	0.909	0.82	0.742	0.671
x2 = 0.003591, x1 = 1.13e-05	0.912	0.82	0.745	0.672
x2 = 0.003591, x1 = 1.44e-05	0.914	0.825	0.749	0.674
x2 = 0.003591, x1 = 1.731e-05	0.922	0.827	0.752	0.675
x2 = 0.003591, x1 = 2.096e-05	0.93	0.831	0.755	0.678
x2 = 0.003591, x1 = 2.333e-05	0.932	0.843	0.757	0.68
x2 = 0.003591, x1 = 2.752e-05	0.936	0.847	0.759	0.683
x2 = 0.003591, x1 = 3.171e-05	0.94	0.853	0.761	0.689
x2 = 0.003591, x1 = 3.572e-05	0.94	0.855	0.764	0.692
x2 = 0.005377, x1 = 3.48e-06	0.879	0.801	0.725	0.644
x2 = 0.005377, x1 = 8.25e-06	0.881	0.804	0.726	0.644
x2 = 0.005377, x1 = 1.136e-05	0.884	0.805	0.726	0.645
x2 = 0.005377, x1 = 1.448e-05	0.886	0.807	0.727	0.647
x2 = 0.005377, x1 = 1.741e-05	0.89	0.808	0.728	0.648
x2 = 0.005377, x1 = 2.108e-05	0.893	0.811	0.731	0.649
x2 = 0.005377, x1 = 2.346e-05	0.896	0.813	0.733	0.65
x2 = 0.005377, x1 = 2.767e-05	0.9	0.816	0.736	0.651
x2 = 0.005377, x1 = 3.189e-05	0.906	0.823	0.738	0.653
x2 = 0.005377, x1 = 3.592e-05	0.912	0.828	0.741	0.655
x2 = 0.007156, x1 = 3.5e-06	0.914	0.848	–	–
x2 = 0.007156, x1 = 8.29e-06	0.918	0.852	–	–
x2 = 0.007156, x1 = 1.143e-05	0.92	0.855	–	–
x2 = 0.007156, x1 = 1.456e-05	0.922	0.859	–	–
x2 = 0.007156, x1 = 1.751e-05	0.925	0.864	–	–
x2 = 0.007156, x1 = 2.119e-05	0.926	0.868	–	–
x2 = 0.007156, x1 = 2.359e-05	0.929	0.872	–	–
x2 = 0.007156, x1 = 2.783e-05	0.933	0.876	–	–
x2 = 0.007156, x1 = 3.206e-05	0.937	0.882	–	–
x2 = 0.007156, x1 = 3.612e-05	0.944	0.886	–	–

CCCCCCCC[n+]1ccccc1.[Br-] + NCC(=O)O + O
Details	electrical conductivity [S/m]
288.15 K, x2 = 0.0008947, x1 = 0.006107	1.24
288.15 K, x2 = 0.000895, x1 = 0.005825	1.21
288.15 K, x2 = 0.0008952, x1 = 0.005524	1.18
288.15 K, x2 = 0.0008955, x1 = 0.005206	1.15
288.15 K, x2 = 0.0008958, x1 = 0.004856	1.11
288.15 K, x2 = 0.0008962, x1 = 0.004472	1.07
288.15 K, x2 = 0.0008965, x1 = 0.004053	1
288.15 K, x2 = 0.0008969, x1 = 0.003596	0.923
288.15 K, x2 = 0.0008974, x1 = 0.003095	0.831
288.15 K, x2 = 0.0008979, x1 = 0.00254	0.716
288.15 K, x2 = 0.0008984, x1 = 0.00193	0.579
288.15 K, x2 = 0.0008988, x1 = 0.001523	0.48
288.15 K, x2 = 0.0008992, x1 = 0.00113	0.377
288.15 K, x2 = 0.0008996, x1 = 0.000679	0.257
288.15 K, x2 = 0.001793, x1 = 0.003383	0.886
288.15 K, x2 = 0.001794, x1 = 0.002789	0.766
288.15 K, x2 = 0.001795, x1 = 0.002127	0.621
288.15 K, x2 = 0.001796, x1 = 0.00171	0.522
288.15 K, x2 = 0.001797, x1 = 0.0007678	0.279
288.15 K, x2 = 0.001797, x1 = 0.001253	0.407
293.15 K, x2 = 0.0008947, x1 = 0.006101	1.41
293.15 K, x2 = 0.000895, x1 = 0.005819	1.38
293.15 K, x2 = 0.0008952, x1 = 0.005519	1.34
293.15 K, x2 = 0.0008955, x1 = 0.005201	1.3
293.15 K, x2 = 0.0008958, x1 = 0.00485	1.26
293.15 K, x2 = 0.0008962, x1 = 0.004469	1.21
293.15 K, x2 = 0.0008965, x1 = 0.00405	1.13
293.15 K, x2 = 0.0008969, x1 = 0.003594	1.05
293.15 K, x2 = 0.0008974, x1 = 0.003091	0.935
293.15 K, x2 = 0.0008979, x1 = 0.002538	0.809
293.15 K, x2 = 0.0008985, x1 = 0.001923	0.652
293.15 K, x2 = 0.0008988, x1 = 0.001521	0.542
293.15 K, x2 = 0.0008992, x1 = 0.00113	0.423
293.15 K, x2 = 0.0008996, x1 = 0.000679	0.285
293.15 K, x2 = 0.001793, x1 = 0.003379	1
293.15 K, x2 = 0.001794, x1 = 0.002785	0.864
293.15 K, x2 = 0.001795, x1 = 0.002125	0.701
293.15 K, x2 = 0.001796, x1 = 0.001708	0.589
293.15 K, x2 = 0.001797, x1 = 0.0007678	0.312
293.15 K, x2 = 0.001797, x1 = 0.001251	0.458
298.15 K, x2 = 0.0008947, x1 = 0.006092	1.59
298.15 K, x2 = 0.000895, x1 = 0.005812	1.55
298.15 K, x2 = 0.0008952, x1 = 0.005512	1.51
298.15 K, x2 = 0.0008955, x1 = 0.005195	1.47
298.15 K, x2 = 0.0008958, x1 = 0.004845	1.42
298.15 K, x2 = 0.0008962, x1 = 0.004462	1.35
298.15 K, x2 = 0.0008965, x1 = 0.004044	1.27
298.15 K, x2 = 0.000897, x1 = 0.003589	1.18
298.15 K, x2 = 0.0008974, x1 = 0.003088	1.05
298.15 K, x2 = 0.0008979, x1 = 0.002534	0.906
298.15 K, x2 = 0.0008985, x1 = 0.001921	0.725
298.15 K, x2 = 0.0008988, x1 = 0.001519	0.603
298.15 K, x2 = 0.0008992, x1 = 0.001128	0.473
298.15 K, x2 = 0.0008996, x1 = 0.0006772	0.315
298.15 K, x2 = 0.001793, x1 = 0.003376	1.11
298.15 K, x2 = 0.001794, x1 = 0.002781	0.967
298.15 K, x2 = 0.001795, x1 = 0.002123	0.782
298.15 K, x2 = 0.001796, x1 = 0.001706	0.657
298.15 K, x2 = 0.001797, x1 = 0.000766	0.347
298.15 K, x2 = 0.001797, x1 = 0.001249	0.511
303.15 K, x2 = 0.0008947, x1 = 0.006085	1.78
303.15 K, x2 = 0.000895, x1 = 0.005803	1.74
303.15 K, x2 = 0.0008952, x1 = 0.005503	1.69
303.15 K, x2 = 0.0008955, x1 = 0.005188	1.64
303.15 K, x2 = 0.0008958, x1 = 0.004838	1.58
303.15 K, x2 = 0.0008962, x1 = 0.004456	1.51
303.15 K, x2 = 0.0008965, x1 = 0.004039	1.42
303.15 K, x2 = 0.000897, x1 = 0.003583	1.3
303.15 K, x2 = 0.0008974, x1 = 0.003082	1.17
303.15 K, x2 = 0.0008979, x1 = 0.002531	1
303.15 K, x2 = 0.0008985, x1 = 0.001917	0.791
303.15 K, x2 = 0.0008988, x1 = 0.001517	0.654
303.15 K, x2 = 0.0008992, x1 = 0.001126	0.519
303.15 K, x2 = 0.0008996, x1 = 0.0006772	0.351
303.15 K, x2 = 0.001793, x1 = 0.00337	1.24
303.15 K, x2 = 0.001794, x1 = 0.002778	1.08
303.15 K, x2 = 0.001795, x1 = 0.002119	0.859
303.15 K, x2 = 0.001796, x1 = 0.001704	0.719
303.15 K, x2 = 0.001797, x1 = 0.000766	0.383
303.15 K, x2 = 0.001797, x1 = 0.001247	0.566
308.15 K, x2 = 0.0008947, x1 = 0.006075	2.03
308.15 K, x2 = 0.000895, x1 = 0.005792	1.97
308.15 K, x2 = 0.0008952, x1 = 0.005494	1.9
308.15 K, x2 = 0.0008955, x1 = 0.005178	1.84
308.15 K, x2 = 0.0008958, x1 = 0.004829	1.75
308.15 K, x2 = 0.0008962, x1 = 0.004449	1.66
308.15 K, x2 = 0.0008966, x1 = 0.004032	1.57
308.15 K, x2 = 0.000897, x1 = 0.003578	1.44
308.15 K, x2 = 0.0008974, x1 = 0.003077	1.26
308.15 K, x2 = 0.0008979, x1 = 0.002527	1.07
308.15 K, x2 = 0.0008985, x1 = 0.001914	0.861
308.15 K, x2 = 0.0008988, x1 = 0.001516	0.717
308.15 K, x2 = 0.0008992, x1 = 0.001125	0.574
308.15 K, x2 = 0.0008996, x1 = 0.0006754	0.425
308.15 K, x2 = 0.001793, x1 = 0.003365	1.36
308.15 K, x2 = 0.001794, x1 = 0.002774	1.17
308.15 K, x2 = 0.001795, x1 = 0.002116	0.934
308.15 K, x2 = 0.001796, x1 = 0.001701	0.79
308.15 K, x2 = 0.001797, x1 = 0.0007642	0.453
308.15 K, x2 = 0.001797, x1 = 0.001245	0.624
